Data on 19 compounds can be found in US9181259B2 (LEO PHARMA A/S, priority 2012, dated 2015).

“Also recorded” adds a separate entry of the source.

One data set concerns the target T1, NK1 receptor (Homo sapiens, UniProt P25103).
T1 construct: Measurement of NK1 Receptor Mediated Intracellular [Ca^2+]; Mobilization in U251 MG Cells Using FLIPR; endogenous in cells; host or cells: U251 MG cells
Put plainly: NK1 receptor mediated intracellular [Ca2+] mobilization in U251 MG cells using FLIPR. Type of data set: cell-based. The note with it: antagonist potency against Substance P (EC80), normalized to 100 nM Aprepitant, read-out: U251MG (FLIPR pIC50) (converted). The method in brief: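 Fluo-4-loaded U251 MG cells were preincubated with compound (0.5% DMSO final), with any agonist effect read for 5 min, then 10 min more at 37 °C before Substance P at EC80. Peak FLIPR fluorescence change was read, and IC50 came from a four-parameter fit as the midpoint between fitted top and bottom.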

A short description of data set [1]: Hepatic intrinsic clearance following incubation in human liver microsomes. Type of data set: in vitro ADME. The note with it: NADPH regenerating system, 0-30 min, 37 °C. The method in brief:
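Compounds (from 50 µM working solution) are incubated with human liver microsomes diluted to 0.55 mg/mL in phosphate pH 7.4, with NADPH regeneration at 37 °C and sampling at 0–30 min. LC-MS/MS parent depletion gives kobs, scaled to mL/min/g liver. Eh uses 25.7 g liver/kg and 20.7 mL/min/kg blood flow.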

The target in another data set is T2, NK-1 receptor (Meriones unguiculatus, UniProt Q5DUB1).
T2 construct: animals (male Mongolian gerbils) were shaved on the rostral part of the back; from tissue; host or cells: living male Mongolian gerbils (skin, topical application; in vivo)
T2 sequence (Q5DUB1 whole entry): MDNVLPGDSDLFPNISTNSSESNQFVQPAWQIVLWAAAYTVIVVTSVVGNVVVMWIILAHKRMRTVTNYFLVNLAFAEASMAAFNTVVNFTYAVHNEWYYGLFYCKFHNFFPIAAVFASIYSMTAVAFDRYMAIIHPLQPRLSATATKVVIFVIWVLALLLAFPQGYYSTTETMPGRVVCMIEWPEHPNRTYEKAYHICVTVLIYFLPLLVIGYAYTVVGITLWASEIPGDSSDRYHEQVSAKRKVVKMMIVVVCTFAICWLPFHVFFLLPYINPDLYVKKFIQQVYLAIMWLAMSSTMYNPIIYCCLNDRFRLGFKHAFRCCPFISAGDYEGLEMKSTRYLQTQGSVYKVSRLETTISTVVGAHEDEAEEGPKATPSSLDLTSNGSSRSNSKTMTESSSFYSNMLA
Put plainly: Gerbil scratching model (scratching induced by NK-1 agonist GR73632). Type of data set: in vivo, Mongolian gerbil. The note with it: for attenuation of scratching induced in gerbils by the NK-1 selective agonist GR73632: topical application 1% w/v (20 μL) 20 min before i.d. GR73632 100 nmol/100 μL, male Mongolian gerbils. The method, then: The gerbil was selected for this study as this species shares higher homology to the human in terms of NK-1 receptor pharmacology compared to other laboratory rodents.
Each test compound was tested on 11 or 12 animals. On the day of the test, the gerbils (four animals simultaneously) were put into a Plexiglas cage (42×42×35 cm) composed of four cells (20.5×20.5×35 cm) for 10 minutes of habituation. After this period, the test compound (1% w/v in acetone and transcutol 9:1) was topically applied on the shaven area in a volume of 20 μL. Topical application was performed using a Hamilton syringe (25 μL) and a square stencil of impermeable paper (1.5×1.5 cm) to allow application over a defined skin area (2.25 cm2). […] I.d. injection was made with a Hamilton syringe (250 μL) connected to a 27 gauge needle. Immediately after injection, animals were placed back into the same cell of the Plexiglas cage they were previously habituated in and their behaviour was recorded on video remotely for 30 minutes. The experimenter remained out of the observation room in order to minimize disturbance to the animals. The video was subsequently analysed to assess scratching behaviour. Scratching of the injection site by the hind paws was counted while scratching of other sites such as ears and snout were disregarded. Scratching episodes were measured over 10-minutes time intervals, for a total of 30 minutes.
Results were expressed as mean value±SEM. Statistical analysis was performed by a one-way ANOVA followed by LSD post hoc test with the exception of time-course analysis for a repeated-measure ANOVA followed by LSD post hoc test was performed.

T1 sequence (P25103 whole entry): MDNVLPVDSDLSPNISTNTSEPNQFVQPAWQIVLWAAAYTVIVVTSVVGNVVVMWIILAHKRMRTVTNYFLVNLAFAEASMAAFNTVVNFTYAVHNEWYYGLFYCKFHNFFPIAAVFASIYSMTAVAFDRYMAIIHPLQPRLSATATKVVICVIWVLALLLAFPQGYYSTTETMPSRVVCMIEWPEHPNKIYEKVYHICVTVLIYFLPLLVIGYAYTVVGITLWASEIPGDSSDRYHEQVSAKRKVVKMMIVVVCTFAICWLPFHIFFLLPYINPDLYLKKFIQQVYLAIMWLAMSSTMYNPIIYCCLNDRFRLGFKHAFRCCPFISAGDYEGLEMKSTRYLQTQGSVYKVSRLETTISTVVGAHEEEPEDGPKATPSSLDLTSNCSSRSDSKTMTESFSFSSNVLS

Consider `Cc1ccccc1C1C2CC(CN3CCOCC3)C(=O)N2CCN1C(=O)N(C)Cc1cc(C(F)(F)F)cc(C(F)(F)F)c1` (single isomer, unassigned) [Compound 38], for which, on NK1 receptor, the IC50 is 0.195 nM. The “Human in vitro Clint (mL/min/g liver)” value in data set [1] is on record as 3.3 mL/min/g liver. For the same compound, the “attenuation of scratching induced in gerbils by the NK-1 selective agonist GR73632” value at NK-1 receptor is “not able to attenuate the scratching”.
The matching figures for `Cc1ccccc1C1C2CC(CCO)(CCO)C(=O)N2CCN1C(=O)N(C)Cc1cc(C(F)(F)F)cc(C(F)(F)F)c1` (single isomer, unassigned) [Compound 44, N-{[3,5-bis(trifluoromethyl)phenyl]methyl}-7,7-bis(2-hydroxyethyl)-N-methyl-1-(2-methylphenyl)-6-oxo-octahydropyrrolo[1,2-a]piperazine-2-carboxamide]: 0.0692 nM, 2.6 mL/min/g liver and “able to attenuate the scratching”.
The matching figures for `Cc1ccccc1C1C2CC(CCO)(CCO)CN2CCN1C(=O)N(C)[C@H](C)c1cc(C(F)(F)F)cc(C(F)(F)F)c1` (single isomer, unassigned) [Compound 60]: 0.339 nM, 6.1 mL/min/g liver and “able to attenuate the scratching”.
Turning to “5-Aminopentanoyl-L-phenylalanyl-L-phenylalanyl-L-prolyl-L-(N-methyl)leucyl-L-methioninamide [GR73632, reference compound]”, the “induction of scratching (number of scratches)” value at NK-1 receptor (intradermal injection 100 nmol/100 μL, 30 min time course, repeated-measure ANOVA, gerbil) is given as “induced an increase in the number of scratches; also recorded: induced an increase of scratching”.
Consider `Cc1ccccc1[C@H]1[C@@H]2CCC(=O)N2CCN1C(=O)N(C)[C@H](C)c1cc(C(F)(F)F)cc(C(F)(F)F)c1` (single isomer, unassigned) [Compound 9], for which, at NK1 receptor, the IC50 was 0.0347 nM. The “Human in vitro Clint (mL/min/g liver)” value in data set [1] is 4.5 mL/min/g liver. Moreover, the “attenuation of scratching induced in gerbils by the NK-1 selective agonist GR73632” value at NK-1 receptor was “able to attenuate the scratching”.
Take `Cc1ccccc1C1C2CC(CO)C(=O)N2CCN1C(=O)N(C)[C@H](C)c1cc(C(F)(F)F)cc(C(F)(F)F)c1` (single isomer, unassigned) [Compound 55]: the IC50 at NK1 receptor is 0.151 nM. Further, the “Human in vitro Clint (mL/min/g liver)” value in data set [1] amounted to 2.4 mL/min/g liver. Further, the “attenuation of scratching induced in gerbils by the NK-1 selective agonist GR73632” value on NK-1 receptor is reported as “not able to attenuate the scratching”.
Take `Cc1ccccc1C1C2CC(CCO)(CCO)C(=O)N2CCN1C(=O)N(C)[C@H](C)c1cc(C(F)(F)F)cc(C(F)(F)F)c1` (single isomer, unassigned) [Compound 54]: the IC50 on NK1 receptor was 0.12 nM. In data set [1], the “Human in vitro Clint (mL/min/g liver)” value was determined as 9.5 mL/min/g liver. Moreover, the “attenuation of scratching induced in gerbils by the NK-1 selective agonist GR73632” value on NK-1 receptor is recorded as “able to attenuate the scratching”.
As for `Cc1ccccc1[C@H]1[C@@H]2CC(CO)(CO)C(=O)N2CCN1C(=O)N(C)[C@H](C)c1cc(Cl)cc(C(F)(F)F)c1` [Compound 108, (1S,8aS)-N-((R)-1-(3-chloro-5-(trifluoromethyl)phenyl)ethyl)-7,7-bis(hydroxymethyl)-N-methyl-6-oxo-1-o-tolylhexahydropyrrolo[1,2-a]pyrazine-2(1H)-carboxamide], on NK1 receptor, the IC50 is 0.0316 nM. Further, the “Human in vitro Clint (mL/min/g liver)” value in data set [1] worked out at 4.3 mL/min/g liver.
The matching figures for `Cc1cc([C@@H](C)N(C)C(=O)N2CCN3C(=O)CC[C@H]3[C@@H]2c2ccccc2C)cc(C(F)(F)F)c1` [Compound 107, (1S,8aS)-N-methyl-N-((R)-1-(3-methyl-5-(trifluoromethyl)phenyl)ethyl)-6-oxo-1-o-tolylhexahydropyrrolo[1,2-a]pyrazine-2(1H)-carboxamide]: 0.107 nM and 9.2 mL/min/g liver.
For `Cc1ccccc1[C@H]1[C@H]2CCC(=O)N2CCN1C(=O)N(C)[C@H](C)c1cc(C(F)(F)F)cc(C(F)(F)F)c1` (single isomer, unassigned) [Compound 75] the same measures were 0.0316 nM and 32 mL/min/g liver.
As for `Cc1ccccc1[C@H]1[C@@H]2CC(CCO)(CCO)C(=O)N2CCN1C(=O)N(C)[C@H](C)c1cc(C(C)C)cc(C(F)(F)F)c1` [Compound 113, (1S,8aS)-7,7-bis(2-hydroxyethyl)-N-((R)-1-(3-isopropyl-5-(trifluoromethyl)phenyl)ethyl)-N-methyl-6-oxo-1-o-tolylhexahydropyrrolo[1,2-a]pyrazine-2(1H)-carboxamide], the IC50 on NK1 receptor is 0.0316 nM. The “Human in vitro Clint (mL/min/g liver)” value in data set [1] was 56 mL/min/g liver.
The matching figures for `Cc1cc([C@@H](C)N(C)C(=O)N2CCN3C(=O)C4(CCOCC4)C[C@H]3[C@@H]2c2ccccc2C)cc(C(F)(F)F)c1` [Compound 101]: 0.0251 nM and 6.9 mL/min/g liver.
Take `Cc1ccccc1[C@H]1[C@@H]2CC3(CCOCC3)C(=O)N2CCN1C(=O)N(C)[C@H](C)c1cc(C(F)(F)F)cc(C(F)(F)F)c1` [Compound 100, (1′S,8a′S)-N-((R)-1-(3,5-bis(trifluoromethyl)phenyl)ethyl)-N-methyl-6′-oxo-1′-o-tolyloctahydro-1′H-spiro[pyran-4,7′-pyrrolo[1,2-a]pyrazine]-2′(6′H)-carboxamide]: the IC50 at NK1 receptor was 0.126 nM. The “Human in vitro Clint (mL/min/g liver)” value in data set [1] turned out to be 3.0 mL/min/g liver.
The matching figures for `Cc1cc([C@H](C)N(C)C(=O)N2CCN3C(=O)C(CCO)(CCO)C[C@H]3[C@@H]2c2ccccc2C)cc(C(F)(F)F)c1` [Compound 84, (1S,8aS)-7,7-bis(2-hydroxyethyl)-N-methyl-N-((S)-1-(3-methyl-5-(trifluoromethyl)phenyl)ethyl)-6-oxo-1-o-tolylhexahydropyrrolo[1,2-a]pyrazine-2(1H)-carboxamide]: 0.0631 nM and 8.5 mL/min/g liver.
For `Cc1ccccc1C1C2CC3(CCN(C)CC3)C(=O)N2CCN1C(=O)N(C)Cc1cc(C(F)(F)F)cc(C(F)(F)F)c1` (single isomer, unassigned) [Compound 47, N-{[3,5-bis(trifluoromethyl)phenyl]methyl}-N,1-dimethyl-4′-(2-methylphenyl)-1′-oxo-hexahydro-1′H-spiro[piperidine-4,2′-pyrrolo[1,2-a]piperazine]-5′-carboxamide] the same measures were 0.0933 nM and 0.4 mL/min/g liver.
Regarding `Cc1cc([C@@H](C)N(C)C(=O)N2CCN3C(=O)C(CO)(CO)C[C@H]3[C@@H]2c2ccccc2C)cc(C(F)(F)F)c1` [Compound 103, (1S,8aS)-7,7-bis(hydroxymethyl)-N-methyl-N-((R)-1-(3-methyl-5-(trifluoromethyl)phenyl)ethyl)-6-oxo-1-o-tolylhexahydropyrrolo[1,2-a]pyrazine-2(1H)-carboxamide], on NK1 receptor, the IC50 was 0.0794 nM. Further, the “Human in vitro Clint (mL/min/g liver)” value in data set [1] is on record as 4.8 mL/min/g liver.
For `Cc1ccccc1C1C2CCC(=O)N2CCN1C(=O)N(C)Cc1cc(C(F)(F)F)cc(C(F)(F)F)c1` (single isomer, unassigned) [Compound 18, N-{[3,5-bis(trifluoromethyl)phenyl]methyl}-N-methyl-1-(2-methylphenyl)-6-oxo-octahydropyrrolo[1,2-a]piperazine-2-carboxamide] the same measures were 0.603 nM and 2.8 mL/min/g liver.
For `COc1cc([C@@H](C)N(C)C(=O)N2CCN3C(=O)C(CCO)(CCO)C[C@H]3[C@@H]2c2ccccc2C)cc(C(F)(F)F)c1` [Compound 91, (1S,8aS)-7,7-bis(2-hydroxyethyl)-N-((R)-1-(3-methoxy-5-(trifluoromethyl)phenyl)ethyl)-N-methyl-6-oxo-1-o-tolylhexahydropyrrolo[1,2-a]pyrazine-2(1H)-carboxamide] the same measures were 0.0631 nM and 8.5 mL/min/g liver.
On to `Cc1ccccc1[C@H]1[C@@H]2CC(CCO)(CCO)C(=O)N2CCN1C(=O)N(C)Cc1cc(F)cc(C(F)(F)F)c1` [Compound 76, (1S,8aS)-N-(3-fluoro-5-(trifluoromethyl)benzyl)-7,7-bis(2-hydroxyethyl)-N-methyl-6-oxo-1-o-tolylhexahydropyrrolo[1,2-a]pyrazine-2(1H)-carboxamide], for which the IC50 on NK1 receptor was 0.148 nM. Further, the “Human in vitro Clint (mL/min/g liver)” value in data set [1] was 12 mL/min/g liver.
